Patent publication US5492918A, “Use of substituted chromans, some of which are known, as medicaments, new active compounds and processes for their preparation” (Bayer Aktiengesellschaft, priority 1993, dated 1996)
Where two headings read alike, the source gives them in different places.

What was measured:
HIV protease = target: T1, HIV protease (Human immunodeficiency virus type 1 group M subtype B, UniProt P04585); experiment: biochemical; conditions: for inhibition at 200 µg/mL: read-out: % Inhibition at 200 μg/ml
T1 construct: purified HIV protease
Method: This is confirmed by an HIV-specific protease enzyme test.
The results of the examples shown below were determined by the HIV test system described in the following bibliographical references [cf. Hansen, J., Billich, S., Schulze, T., Sukrow, S. and Molling, K. (1988), EMBO Journal, Vol, 7, No. 6, pp. 1785-1791]: purified HIV protease was incubated with synthetic peptide which imitated a cleavage site in the Gag precursor protein and is an in vivo cleavage site of HIV protease. The resultant cleavage products of the synthetic peptide were analysed by means of reverse phase high performance liquid chromatography (RP-HPLC). The IC50 values indicated relate to the substance concentration which, under the abovementioned test conditions, causes a 50% inhibition of protease activity.

HIV = HIV infection in cell culture: suppression of virus-induced syncytia in human blood lymphocytes (PBL); format: cell-based; conditions: Human immunodeficiency virus 1, 72 h, 50% of virus-induced syncytia suppressed, day 3 to 6 after infection
Method: The HIV test was carried out with slight modifications by the method of Pauwels et al,. [cf. Journal of Virological Methods 20, (1988) , 309-321].
Normal human blood lymphocytes (PBLs) were concentrated on Ficoll Hypaque and stimulated with phytohaemagglutinin (90 μg/ml) and interleukin-2 (40 U/ml) in RPMI 1640, 20% foetal calf serum. For infection with the infectious HIV, PBLs were pelleted and the cell pellet was then suspended in 1 ml of HIV virus adsorption solution and incubated at 37° C for 1 hour.
Alternatively, HIV-susceptible H9 cells were employed instead of normal human blood lymphocytes for testing of the antiviral effects of the compounds according to the invention.
The virus adsorption solution was centrifuged and the infected cell pellet was taken up in growth medium such that a concentration of 1×10^5 cells per ml was set. The cells infected in this way were pipetted at 1×10^4 cells/well into the wells of 96-well microtitre plates.
The first vertical row of the microtitre plate contained only growth medium and cells which had not been infected but otherwise treated exactly as described above (cell control). […]
The test batches were incubated at 37° C until the syncytia formation typical of HIV occurred in the untreated virus control (between day 3 and 6 after infection), which was then assessed microscopically. […]

[1] = 200 μg/ml, purified HIV protease, synthetic peptide substrate, RP-HPLC

| SMILES | inhibition at 200 µg/mL (HIV protease) [%] | inhibition at 200 µg/mL (HIV protease; [1]) [%] | also measured |
| --- | --- | --- | --- |
| O=c1[nH]c2ccccc2n1C1CCN(CC2CCc3cccc(O)c3O2)CC1 (racemic) [Example 33, 8-Hydroxy-2-[4-(2-oxo-1-benzimidazolyl)piperidylmethyl]-chroman] | 99 | – | – |
| COc1cccc2c1OC(C(=O)N1CCC(NC(=O)Nc3ccccc3)CC1)CC2 (centres unmarked) [Example 1, 8-Methoxy-2-[4-(phenylaminocarbonyl-amino)piperidylcarbonyl]-chroman] | – | 99 | – |
| O=C(C1CCc2ccccc2O1)N1CCC(n2c(=O)[nH]c3ccccc32)CC1 (centres unmarked) [Example 21] | – | 65 | – |
| COc1cccc2c1OC(C(=O)N1CCC(n3c(=O)[nH]c4ccccc43)CC1)CC2 (centres unmarked) [Example 24] | – | 99 | – |
| COc1cccc2c1O[C@H](C(=O)N1CCC(n3c(=O)[nH]c4ccccc43)CC1)CC2 [Example 25] | – | 74 | – |
| O=c1[nH]c2ccccc2n1C1CCN(CC2CCc3ccccc3O2)CC1 (centres unmarked) [Example 27] | 81 | – | – |
| O=c1[nH]c2ccccc2n1C1CCN(C[C@@H]2CCc3ccccc3O2)CC1 [Example 28] | 94 | – | – |
| COc1cccc2c1OC(CN1CCC(n3c(=O)[nH]c4ccccc43)CC1)CC2 (centres unmarked) [Example 30] | 99 | – | IC50 (HIV): 10 µM; IC50 (HIV protease; 50% inhibition of protease activity, purified HIV protease, synthetic peptide substrate): 0.0002 µM |
| COc1cccc2c1O[C@H](CN1CCC(n3c(=O)[nH]c4ccccc43)CC1)CC2 [Example 31] | – | – | IC50 (HIV): 10 µM |
